Read-outs that look alike come from different tables or passages of the source.
How the values were obtained:
CMV = assay: microbe, parasite or virus in culture; format: cell-based; settings: Human betaherpesvirus 5, 72 h, read-out: CMV-Luc Cellular EC50, NN-NHDF cells, MOI 1, 72 hrs
CMV-polymerase = CMV-polymerase (Human cytomegalovirus (strain AD169) (HHV-5) (Human herpesvirus 5), UniProt P08546); assay: biochemical
[1] = CMV-polymerase Biochemical IC50
[2] = read-out: CMV-polymerase Biochemical IC50

SMILES | EC50 (CMV) | IC50 (CMV-polymerase; [1]) | IC50 (CMV-polymerase; [2])
Cn1nc(C(=O)NCc2ccc(Cl)cc2)c2c1C(=O)N(CC1(S(=O)(=O)C(C)(C)COCCO)CC1)CC2 [Example 88, N-(4-Chlorobenzyl)-6-((1-((1-(2-hydroxyethoxy)-2-methylpropan-2-yl)sulfonyl)cyclopropyl)methyl)-1-methyl-7-oxo-4,5,6,7-tetrahydro-1H-pyrazolo[3,4-c]pyridine-3-carboxamide] | 36 nM | 2 nM | 
Cn1nc(C(=O)NCc2ccc(C#N)cc2)c2c1C(=O)N(CC1(S(=O)(=O)C3(COCCN)CC3)CC1)CC2 [Example 96, 6-((1-((1-((2-aminoethoxy)methyl)cyclopropyl)sulfonyl)cyclopropyl)methyl)-N-(4-cyanobenzyl)-1-methyl-7-oxo-4,5,6,7-tetrahydro-1H-pyrazolo[3,4-c]pyridine-3-carboxamide] | 26 nM |  | 1 nM
CNCCOCC(C)(C)S(=O)(=O)C1(CN2CCc3c(C(=O)NCc4ccc(C#N)cc4)nn(C)c3C2=O)CC1 [Example 101, N-(4-Cyanobenzyl)-1-methyl-6-((1-((2-methyl-1-(2-(methylamino)ethoxy)propan-2-yl)sulfonyl)cyclopropyl)methyl)-7-oxo-4,5,6,7-tetrahydro-1H-pyrazolo[3,4-c]pyridine-3-carboxamide] | 9 nM | 1 nM | 
Cn1nc(C(=O)NCc2ccc(C#N)cc2)c2c1C(=O)N(CC1(S(=O)(=O)C(C)(C)COC3CNC3)CC1)CC2 [Example 102, 6-((1-((1-(Azetidin-3-yloxy)-2-methylpropan-2-yl)sulfonyl)cyclopropyl)methyl)-N-(4-cyanobenzyl)-1-methyl-7-oxo-4,5,6,7-tetrahydro-1H-pyrazolo[3,4-c]pyridine-3-carboxamide] | 26 nM | 5 nM | 
Cn1nc(C(=O)NCc2ccc(C#N)cc2)c2c1C(=O)N(CC1(S(=O)(=O)C(C)(C)COCC(C)(C)N)CC1)CC2 [Example 103, 6-((1-((1-(2-Amino-2-methylpropoxy)-2-methylpropan-2-yl)sulfonyl)cyclopropyl)methyl)-N-(4-cyanobenzyl)-1-methyl-7-oxo-4,5,6,7-tetrahydro-1H-pyrazolo[3,4-c]pyridine-3-carboxamide] | 41 nM | 9 nM | 
CN(C)CCOCC(C)(C)S(=O)(=O)C1(CN2CCc3c(C(=O)NCc4ccc(C#N)cc4)nn(C)c3C2=O)CC1 [Example 104, N-(4-Cyanobenzyl)-6-((1-((1-(2-(dimethylamino)ethoxy)-2-methylpropan-2-yl)sulfonyl)cyclopropyl)methyl)-1-methyl-7-oxo-4,5,6,7-tetrahydro-1H-pyrazolo[3,4-c]pyridine-3-carboxamide] | 21 nM |  | 3 nM
CNC(=O)C(C)(C)S(=O)(=O)C1(CN2CCc3c(C(=O)NCc4ccc(Cl)cc4)nn(C)c3C2=O)CC1 [Example 110, N-(4-Chlorobenzyl)-1-methyl-6-((1-((2-methyl-1-(methylamino)-1-oxopropan-2-yl)sulfonyl)cyclopropyl)methyl)-7-oxo-4,5,6,7-tetrahydro-1H-pyrazolo[3,4-c]pyridine-3-carboxamide] | 218 nM | 5 nM | 
Cn1nc(C(=O)NCc2ccc(C#N)cc2)c2c1C(=O)N(CC1(S(=O)(=O)C3(CCO)CC3)CC1)CC2 [Example 117, N-(4-Cyanobenzyl)-6-((1-((1-(2-hydroxyethyl)cyclopropyl)sulfonyl)cyclopropyl)methyl)-1-methyl-7-oxo-4,5,6,7-tetrahydro-1H-pyrazolo[3,4-c]pyridine-3-carboxamide] | 35 nM |  | 4 nM
Cn1nc(C(=O)NCc2ccc(C#N)cc2)c2c1C(=O)N(CC1(S(=O)(=O)CC(C)(C)O)CC1)CC2 [Example 118, N-(4-Cyanobenzyl)-6-((1-((2-hydroxy-2-methylpropyl)sulfonyl)cyclopropyl)methyl)-1-methyl-7-oxo-4,5,6,7-tetrahydro-1H-pyrazolo[3,4-c]pyridine-3-carboxamide] | 327 nM |  | 19 nM
Cn1nc(C(=O)NCc2ccc(C#N)cc2)c2c1C(=O)N(CC1(S(=O)(=O)[C@H]3C[C@@H](O)C3)CC1)CC2 [Example 119, N-(4-Cyanobenzyl)-6-((1-(((1s,3s)-3-hydroxycyclobutyl)sulfonyl)cyclopropyl)methyl)-1-methyl-7-oxo-4,5,6,7-tetrahydro-1H-pyrazolo[3,4-c]pyridine-3-carboxamide] | 156 nM | 4 nM | 
Cn1nc(C(=O)NCc2ccc(C#N)cc2)c2c1C(=O)N(CC1(S(=O)(=O)[C@H]3C[C@H](O)C3)CC1)CC2 [Example 120, N-(4-Cyanobenzyl)-6-((1-(((1r,3r)-3-hydroxycyclobutyl)sulfonyl)cyclopropyl)methyl)-1-methyl-7-oxo-4,5,6,7-tetrahydro-1H-pyrazolo[3,4-c]pyridine-3-carboxamide] | 151 nM | 3 nM | 
Cn1nc(C(=O)NCc2ccc(Cl)cc2)c2c1C(=O)N(CC1(S(N)(=O)=O)CC1)CC2 [Example 121, N-(4-chlorobenzyl)-1-methyl-7-oxo-6-((1-sulfamoylcyclopropyl)methyl)-4,5,6,7-tetrahydro-1H-pyrazolo[3,4-c]pyridine-3-carboxamide] | 156 nM | 8 nM | 
CN(C)/C=N/S(=O)(=O)C1(CN2CCc3c(C(=O)NCc4ccc(Cl)cc4)nn(C)c3C2=O)CC1 [Example 122, (E)-N-(4-chlorobenzyl)-6-((1-(N-((dimethylamino)methylene)sulfamoyl)cyclopropyl)methyl)-1-methyl-7-oxo-4,5,6,7-tetrahydro-1H-pyrazolo[3,4-c]pyridine-3-carboxamide] | 298 nM |  | 7 nM
Cn1nc(C(=O)NCc2ccc(C#N)cc2)c2c1C(=O)N(CC1(S(=O)(=O)N3CCOCC3)CC1)CC2 [Example 124, N-(4-Cyanobenzyl)-1-methyl-6-((1-(morpholinosulfonyl)cyclopropyl)methyl)-7-oxo-4,5,6,7-tetrahydro-1H-pyrazolo[3,4-c]pyridine-3-carboxamide] | 156 nM |  | 6 nM
Cn1nc(C(=O)NCc2ccc(C#N)cc2)c2c1C(=O)N(CC1(S(=O)(=O)N3CCC(O)CC3)CC1)CC2 [Example 125, N-(4-Cyanobenzyl)-6-((1-((4-hydroxypiperidin-1-yl)sulfonyl)cyclopropyl)methyl)-1-methyl-7-oxo-4,5,6,7-tetrahydro-1H-pyrazolo[3,4-c]pyridine-3-carboxamide] | 196 nM |  | 3 nM
Cn1nc(C(=O)NCc2ccc(C#N)cc2)c2c1C(=O)N(CC1(S(=O)(=O)N3CC[C@@H](O)C3)CC1)CC2 [Example 126, (R)-N-(4-Cyanobenzyl)-6-((1-((3-hydroxypyrrolidin-1-yl)sulfonyl)cyclopropyl)methyl)-1-methyl-7-oxo-4,5,6,7-tetrahydro-1H-pyrazolo[3,4-c]pyridine-3-carboxamide] | 118 nM |  | 4 nM
Cn1nc(C(=O)NCc2ccc(C#N)cc2)c2c1C(=O)N(CC1(S(=O)(=O)N3CC[C@H](O)C3)CC1)CC2 [Example 127, (S)-N-(4-Cyanobenzyl)-6-((1-((3-hydroxypyrrolidin-1-yl)sulfonyl)cyclopropyl)methyl)-1-methyl-7-oxo-4,5,6,7-tetrahydro-1H-pyrazolo[3,4-c]pyridine-3-carboxamide] | 122 nM |  | 4 nM
Cn1nc(C(=O)NCc2ccc(C#N)cc2)c2c1C(=O)N(CC1(S(=O)(=O)NC3CC3)CC1)CC2 [Example 129, N-(4-cyanobenzyl)-6-((1-(N-cyclopropylsulfamoyl)cyclopropyl)methyl)-1-methyl-7-oxo-4,5,6,7-tetrahydro-1H-pyrazolo[3,4-c]pyridine-3-carboxamide] | 247 nM |  | 16 nM
Cn1nc(C(=O)NCc2ccc(C#N)cc2)c2c1C(=O)N(CC1(S(=O)(=O)NC3COC3)CC1)CC2 [Example 132, N-(4-Cyanobenzyl)-1-methyl-6-((1-(N-(oxetan-3-yl)sulfamoyl)cyclopropyl)methyl)-7-oxo-4,5,6,7-tetrahydro-1H-pyrazolo[3,4-c]pyridine-3-carboxamide] | 289 nM |  | 20 nM
Cn1nc(C(=O)NCc2ccc(C#N)cc2)c2c1C(=O)N(CC1(S(=O)(=O)N3CCNCC3)CC1)CC2 [Example 133, N-(4-Cyanobenzyl)-1-methyl-7-oxo-6-((1-(piperazin-1-ylsulfonyl)cyclopropyl)methyl)-4,5,6,7-tetrahydro-1H-pyrazolo[3,4-c]pyridine-3-carboxamide] | 97 nM |  | 20 nM
Cn1nc(C(=O)NCc2ccc(C#N)cc2)c2c1C(=O)N(CC1(S(=O)(=O)NCCCN)CC1)CC2 [Example 134, 6-((1-(N-(3-Aminopropyl)sulfamoyl)cyclopropyl)methyl)-N-(4-cyanobenzyl)-1-methyl-7-oxo-4,5,6,7-tetrahydro-1H-pyrazolo[3,4-c]pyridine-3-carboxamide] | 443 nM |  | 31 nM
Cn1nc(C(=O)NCc2ccc(C#N)cc2)c2c1C(=O)N(CC1(S(=O)(=O)NCCN)CC1)CC2 [Example 135, 6-((1-(N-(2-Aminoethyl)sulfamoyl)cyclopropyl)methyl)-N-(4-cyanobenzyl)-1-methyl-7-oxo-4,5,6,7-tetrahydro-1H-pyrazolo[3,4-c]pyridine-3-carboxamide] | 536 nM |  | 62 nM
CN1CCN(S(=O)(=O)C2(CN3CCc4c(C(=O)NCc5ccc(C#N)cc5)nn(C)c4C3=O)CC2)CC1 [Example 136, N-(4-Cyanobenzyl)-1-methyl-6-((1-((4-methylpiperazin-1-yl)sulfonyl)cyclopropyl)methyl)-7-oxo-4,5,6,7-tetrahydro-1H-pyrazolo[3,4-c]pyridine-3-carboxamide] | 199 nM |  | 18 nM
Cn1nc(C(=O)NCc2ccc(C#N)cc2)c2c1C(=O)N(CC1(S(=O)(=O)NC3CCNCC3)CC1)CC2 [Example 137, N-(4-Cyanobenzyl)-1-methyl-7-oxo-6-((1-(N-(piperidin-4-yl)sulfamoyl)cyclopropyl)methyl)-4,5,6,7-tetrahydro-1H-pyrazolo[3,4-c]pyridine-3-carboxamide] | 636 nM |  | 44 nM

Reference: patent US12338220B2, “Antiviral pyrazolopiridinone compounds” (Novartis AG, priority 2019, dated 2025)
